The record followed here is ChEMBL document CHEMBL1151681, “New Naphthalenyl Glucosides from the Roots of Juglans mandshurica” (J Nat Prod, 1996).

The test system of one assay is U-937. Nature of the assay: Cytotoxicity against human U937 cells by MTT assay. In kind it is functional, cell-based.
Assay [1] in a line: Cytotoxicity against human Hep3B cells by MTT assay. The format is functional, cell-based, Hep 3B2.

The structures appear in SMILES notation. In brackets after ≈: the same amount, converted by molar mass.

On to `COc1cc(C(=O)OC[C@H]2O[C@@H](Oc3ccc(O)c4cccc(O)c34)[C@H](O)[C@@H](O)[C@@H]2O)cc(OC)c1O`, for which the results for the IC50 (with U-937; in assay [1]) were 50 µg/mL (≈ 96.4 µM) and over 100 µg/mL, respectively.

Take `O=C(OC[C@H]1O[C@@H](Oc2ccc(O)c3cccc(O)c23)[C@H](O)[C@@H](O)[C@@H]1O)c1cc(O)c(O)c(O)c1`: the IC50 with U-937 is 30 µg/mL (≈ 61.2 µM); in assay [1], over 100 µg/mL.
